Data from patent US10988477B2 (Merck Patent GmbH, priority 2018, dated 2021).

What was measured:
[1] = target: intracellular GCN2 (phosphorylation of the GCN2 substrate eIF2α) (Homo sapiens, UniProt Q9P2K8); assay: GCN2 cellular inhibition assay (AlphaScreen SureFire P-eIF2α Ser51, borrelidin-treated U2OS cells); format: cell-based; conditions: compounds of Formula IV; biomarker assay, phosphorylated eIF2α Ser51 in borrelidin-treated U2OS cells
In short: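 U2OS cells adhered overnight, then treated with compounds (4-fold serial dilutions from 40 μM final) plus borrelidin 10 μM final for 1 h at 37 °C. Lysate eIF2α Ser51 phosphorylation measured by AlphaScreen SureFire. Percent inhibition calculated relative to borrelidin-only wells.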

[2] = target: GCN2 kinase (Homo sapiens, UniProt Q9P2K8); assay: GCN2 enzyme inhibition assay (Transcreener ADP2 fluorescence polarization); format: biochemical; conditions: Enzyme activity for compounds of Formula IV; Ki(app), 280 μM ATP, 25° C.
Chain of GCN2 kinase (Q9P2K8 whole entry): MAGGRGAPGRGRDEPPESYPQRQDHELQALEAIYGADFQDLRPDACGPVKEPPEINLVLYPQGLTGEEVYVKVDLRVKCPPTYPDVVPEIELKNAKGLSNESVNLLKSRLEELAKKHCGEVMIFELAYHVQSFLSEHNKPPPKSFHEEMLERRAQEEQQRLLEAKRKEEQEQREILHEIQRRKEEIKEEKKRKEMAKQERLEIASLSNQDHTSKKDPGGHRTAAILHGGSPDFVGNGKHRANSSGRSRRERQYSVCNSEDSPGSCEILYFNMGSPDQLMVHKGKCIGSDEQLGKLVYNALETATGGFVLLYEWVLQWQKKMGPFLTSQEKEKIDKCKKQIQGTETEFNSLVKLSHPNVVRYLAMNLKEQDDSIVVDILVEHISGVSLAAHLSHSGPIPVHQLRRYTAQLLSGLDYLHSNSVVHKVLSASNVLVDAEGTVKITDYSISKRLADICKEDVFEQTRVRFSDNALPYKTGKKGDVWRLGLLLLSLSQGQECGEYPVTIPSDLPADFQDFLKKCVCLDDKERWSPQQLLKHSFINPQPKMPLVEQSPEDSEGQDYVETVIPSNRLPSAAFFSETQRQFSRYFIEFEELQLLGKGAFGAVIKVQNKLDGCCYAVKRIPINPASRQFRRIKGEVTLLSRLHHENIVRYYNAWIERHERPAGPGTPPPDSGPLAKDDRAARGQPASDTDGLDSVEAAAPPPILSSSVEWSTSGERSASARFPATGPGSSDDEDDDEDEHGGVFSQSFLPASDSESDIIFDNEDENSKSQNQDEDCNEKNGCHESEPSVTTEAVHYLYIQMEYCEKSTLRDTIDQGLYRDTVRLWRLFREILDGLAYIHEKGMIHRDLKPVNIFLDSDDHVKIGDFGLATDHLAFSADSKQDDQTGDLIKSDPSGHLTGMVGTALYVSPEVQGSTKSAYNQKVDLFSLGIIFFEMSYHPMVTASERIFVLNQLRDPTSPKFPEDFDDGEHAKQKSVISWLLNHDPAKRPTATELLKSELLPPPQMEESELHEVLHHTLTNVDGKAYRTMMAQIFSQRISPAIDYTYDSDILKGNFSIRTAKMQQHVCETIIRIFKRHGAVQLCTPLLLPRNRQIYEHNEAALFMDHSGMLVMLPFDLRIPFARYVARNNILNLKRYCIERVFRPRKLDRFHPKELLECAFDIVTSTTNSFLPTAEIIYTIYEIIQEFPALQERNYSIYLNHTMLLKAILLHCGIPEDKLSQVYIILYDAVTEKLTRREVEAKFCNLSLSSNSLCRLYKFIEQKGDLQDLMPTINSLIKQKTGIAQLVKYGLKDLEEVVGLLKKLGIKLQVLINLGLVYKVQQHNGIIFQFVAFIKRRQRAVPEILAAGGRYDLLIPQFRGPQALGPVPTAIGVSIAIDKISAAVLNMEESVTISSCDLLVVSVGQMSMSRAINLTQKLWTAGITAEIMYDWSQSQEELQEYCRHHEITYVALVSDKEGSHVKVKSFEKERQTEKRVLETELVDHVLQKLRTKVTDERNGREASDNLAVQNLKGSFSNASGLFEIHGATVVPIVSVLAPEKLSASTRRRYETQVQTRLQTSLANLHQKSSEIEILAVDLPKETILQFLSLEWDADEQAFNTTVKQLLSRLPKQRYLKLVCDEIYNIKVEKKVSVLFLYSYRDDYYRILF
In short: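 FP detection of ADP (antibody plus Alexa633 tracer) after a 1 h, 25 °C kinase reaction. Enzyme 4 nM, ATP 280 μM, (RS)7 peptide 200 μM, Tris pH 7.5 buffer with MgCl2 and DTT. Percent inhibition fitted by non-linear tight-binding algorithm for IC50 and Ki(app).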

Chain of intracellular GCN2 (phosphorylation of the GCN2 substrate eIF2α) (Q9P2K8 whole entry): as above

SMILES	IC50 [1] [nM]	Ki [2] [nM]
NS(=O)(=O)C1CCCN(c2ccnc(-c3cnc4cnc(C(F)F)cn34)n2)C1 (stereo not drawn) [IV-56, 1-(2-(6-(Difluoromethyl)imidazo[1,2-a]pyrazin-3-yl)pyrimidin-4-yl)piperidine-3-sulfonamide]	> 5000	100 to 1000
CC1(C(N)=O)CCCN(c2ccnc(-c3cnc4cnc(C(F)F)cn34)n2)C1 (stereo not drawn) [IV-57, 1-(2-(6-(Difluoromethyl)imidazo[1,2-a]pyrazin-3-yl)pyrimidin-4-yl)-3-methylpiperidine-3-carboxamide]	> 5000	100 to 1000
FC(F)c1cn2c(-c3nccc(N4CCCC(c5cn[nH]c5)C4)n3)cnc2cn1 (stereo not drawn) [IV-58, 3-(4-(3-(1H-Pyrazol-4-yl)piperidin-1-yl)pyrimidin-2-yl)-6-(difluoromethyl)imidazo[1,2-a]pyrazine]	500 to 5000	10 to 100
FC(F)(F)c1cn2c(-c3nccc(N4CCCC(c5cn[nH]c5)C4)n3)cnc2cn1 (stereo not drawn) [IV-59, 3-(4-(3-(1H-Pyrazol-4-yl)piperidin-1-yl)pyrimidin-2-yl)-6-(trifluoromethyl)imidazo[1,2-a]pyrazine]	< 500	< 10
NC(=O)[C@H]1CCCN(c2ccnc(-c3cnc4cnc(C(F)(F)F)cn34)n2)C1 [IV-60, (S)-1-(2-(6-(Trifluoromethyl)imidazo[1,2-a]pyrazin-3-yl)pyrimidin-4-yl)piperidine-3-carboxamide]	500 to 5000	< 10
NC(=O)C1CCN(c2ccnc(-c3cnc4cnc(C(F)F)cn34)n2)C1 (stereo not drawn) [IV-63, 1-(2-(6-(Difluoromethyl)imidazo[1,2-a]pyrazin-3-yl)pyrimidin-4-yl)pyrrolidine-3-carboxamide]	> 5000	100 to 1000
FC(F)c1cn2c(-c3nccc(N4CCC(c5cc[nH]n5)C4)n3)cnc2cn1 (stereo not drawn) [IV-64, 3-(4-(3-(1H-Pyrazol-3-yl)pyrrolidin-1-yl)pyrimidin-2-yl)-6-(difluoromethyl)imidazo[1,2-a]pyrazine]	> 5000	100 to 1000
FC(F)c1cn2c(-c3nccc(N4CCC(c5c[nH]cn5)C4)n3)cnc2cn1 (stereo not drawn) [IV-67, 3-(4-(3-(1H-Imidazol-4-yl)pyrrolidin-1-yl)pyrimidin-2-yl)-6-(difluoromethyl)imidazo[1,2-a]pyrazine]	> 5000	100 to 1000
FC(F)c1cn2c(-c3nccc(N4CCC(c5ccncc5)C4)n3)cnc2cn1 (stereo not drawn) [IV-68, 6-(Difluoromethyl)-3-(4-(3-(pyridin-4-yl)pyrrolidin-1-yl)pyrimidin-2-yl)imidazo[1,2-a]pyrazine]	> 5000	100 to 1000
O=C1NCCC12CCN(c1ccnc(-c3cnc4cnc(C(F)F)cn34)n1)C2 (stereo not drawn) [IV-69, 7-(2-(6-(Difluoromethyl)imidazo[1,2-a]pyrazin-3-yl)pyrimidin-4-yl)-2,7-di azaspiro[4.4]nonan-1-one]	> 5000	100 to 1000
CS(=O)(=O)NC1CCN(c2ccnc(-c3cnc4cnc(C(F)F)cn34)n2)C1 (stereo not drawn) [IV-70, N-(1-(2-(6-(Difluoromethyl)imidazo[1,2-a]pyrazin-3-yl)pyrimidin-4-yl)pyrrolidin-3-yl)methanesulfonamide]	> 5000	100 to 1000
OC1CCN(c2ccnc(-c3cnc4cnc(C(F)F)cn34)n2)C1 (stereo not drawn) [IV-72, 1-(2-(6-(Difluoromethyl)imidazo[1,2-a]pyrazin-3-yl)pyrimidin-4-yl)pyrrolidin-3-ol]	> 5000	100 to 1000
FC(F)c1cn2c(-c3nccc(N4CCC(C5COC5)C4)n3)cnc2cn1 (stereo not drawn) [IV-73, 6-(Difluoromethyl)-3-(4-(3-(oxetan-3-yl)pyrrolidin-1-yl)pyrimidin-2-yl)imidazo[1,2-a]pyrazine]	> 5000	100 to 1000
FC(F)c1cn2c(-c3nccc(N4CCC(c5ccccn5)C4)n3)cnc2cn1 (stereo not drawn) [IV-77, 6-(Difluoromethyl)-3-(4-(3-(pyridin-2-yl)pyrrolidin-1-yl)pyrimidin-2-yl)imidazo[1,2-a]pyrazine]	> 5000	100 to 1000
N#CCC1CCCN(c2ccnc(-c3cnc4cnc(C(F)F)cn34)n2)C1 (stereo not drawn) [IV-82, 2-(1-(2-(6-(Difluoromethyl)imidazo[1,2-a]pyrazin-3-yl)pyrimidin-4-yl)piperidin-3-yl)acetonitrile]	> 5000	100 to 1000
C[C@H]1CCCCN1c1ccnc(-c2cnc3cnc(C(F)F)cn23)n1 [IV-85, (S)-6-(Difluoromethyl)-3-(4-(2-methylpiperidin-1-yl)pyrimidin-2-yl)imidazo[1,2-a]pyrazine]	> 5000	100 to 1000
O=C1NCCN2CCN(c3ccnc(-c4cnc5cnc(C(F)F)cn45)n3)CC12 (stereo not drawn) [IV-86, 8-(2-(6-(Difluoromethyl)imidazo[1,2-a]pyrazin-3-yl)pyrimidin-4-yl)hexahydro-2H-pyrazino[1,2-a]pyrazin-1(6H)-one]	> 5000	100 to 1000
OCC1CCCCN(c2ccnc(-c3cnc4cnc(C(F)F)cn34)n2)C1 (stereo not drawn) [IV-88, (1-(2-(6-(Difluoromethyl)imidazo[1,2-a]pyrazin-3-yl)pyrimidin-4-yl)azepan-3-yl)methanol]	> 5000	100 to 1000
CN1CCN(c2ccnc(-c3cnc4cnc(C(F)F)cn34)n2)CC1C(N)=O (stereo not drawn) [IV-89, 4-(2-(6-(Difluoromethyl)imidazo[1,2-a]pyrazin-3-yl)pyrimidin-4-yl)-1-methylpiperazine-2-carboxamide]	> 5000	100 to 1000
CC1(O)CCCN(c2ccnc(-c3cnc4cnc(C(F)F)cn34)n2)CC1 (stereo not drawn) [IV-90, 1-(2-(6-(Difluoromethyl)imidazo[1,2-a]pyrazin-3-yl)pyrimidin-4-yl)-4-methylazepan-4-ol]	> 5000	100 to 1000
FC(F)c1cn2c(-c3nccc(N4CC5CCC(C4)O5)n3)cnc2cn1 [IV-91, 3-(2-(6-(Difluoromethyl)imidazo[1,2-a]pyrazin-3-yl)pyrimidin-4-yl)-8-oxa-3-azabicyclo[3.2.1]octane]	> 5000	100 to 1000

The remaining lines, values ahead:

IC50 [1] [nM]	Ki [2] [nM]	SMILES
> 5000	100 to 1000	CC(NS(C)(=O)=O)C1CN(c2ccnc(-c3cnc4cnc(C(F)F)cn34)n2)CCO1 (stereo not drawn) [IV-61, N-(1-(4-(2-(6-(Difluoromethyl)imidazo[1,2-a]pyrazin-3-yl)pyrimidin-4-yl)morpholin-2-yl)ethyl)methanesulfonamide]
> 5000	100 to 1000	CC(NS(C)(=O)=O)C1CN(c2ccnc(-c3cnc4cnc(C(F)F)cn34)n2)CCO1 (stereo not drawn) [IV-62, N-(1-(4-(2-(6-(Difluoromethyl)imidazo[1,2-a]pyrazin-3-yl)pyrimidin-4-yl)morpholin-2-yl)ethyl)methanesulfonamide]
> 5000	100 to 1000	Cn1cc(C2CCN(c3ccnc(-c4cnc5cnc(C(F)F)cn45)n3)C2)cn1 (stereo not drawn) [IV-65, 6-(Difluoromethyl)-3-(4-(3-(1-methyl-1H-pyrazol-4-yl)pyrrolidin-1-yl)pyrimidin-2-yl)imidazo[1,2-a]pyrazine]
> 5000	100 to 1000	CNS(=O)(=O)C1CCN(c2ccnc(-c3cnc4cnc(C(F)F)cn34)n2)C1 (stereo not drawn) [IV-71, 1-(2-(6-(Difluoromethyl)imidazo[1,2-a]pyrazin-3-yl)pyrimidin-4-yl)-N-methylpyrrolidine-3-sulfonamide]
> 5000	100 to 1000	NS(=O)(=O)NCC1CCCN(c2ccnc(-c3cnc4cnc(C(F)F)cn34)n2)C1 (stereo not drawn) [IV-74, 6-(Difluoromethyl)-3-[4-[3-[(sulfamoylamino)methyl]-1-piperidyl]pyrimidin-2-yl]imidazo[1,2-a]pyrazine]
> 5000	100 to 1000	FC(F)c1cn2c(-c3nccc(N4CCC5(CCC5)C4)n3)cnc2cn1 [IV-75, 3-[4-(6-Azaspiro[3.4]octan-6-yl)pyrimidin-2-yl]-6-(difluoromethyl)imidazo[1,2-a]pyrazine]
> 5000	100 to 1000	FC(F)c1cn2c(-c3nccc(N4CCC(c5cccnc5)C4)n3)cnc2cn1 (stereo not drawn) [IV-76, 6-(Difluoromethyl)-3-(4-(3-(pyridin-3-yl)pyrrolidin-1-yl)pyrimidin-2-yl)imidazo[1,2-a]pyrazine]
> 5000	100 to 1000	CC(=O)N1CCN(c2ccnc(-c3cnc4cnc(C(C)(F)F)cn34)n2)CC1 [IV-78, 1-(4-(2-(6-(1,1-Difluoroethyl)imidazo[1,2-a]pyrazin-3-yl)pyrimidin-4-yl)piperazin-1-yl)ethan-1-one]
> 5000	100 to 1000	C[C@H]1COCCN1c1ccnc(-c2cnc3cnc(C(F)F)cn23)n1 [IV-81, (S)-4-(2-(6-(Difluoromethyl)imidazo[1,2-a]pyrazin-3-yl)pyrimidin-4-yl)-3-methylmorpholine]
> 5000	100 to 1000	O=c1[nH]nc2n1CCN(c1ccnc(-c3cnc4cnc(C(F)F)cn34)n1)C2 [IV-83, 7-(2-(6-(Difluoromethyl)imidazo[1,2-a]pyrazin-3-yl)pyrimidin-4-yl)-5,6,7,8-tetrahydro-[1,2,4]triazolo[4,3-a]pyrazin-3 (2H)-one]
> 5000	100 to 1000	O=C1NCC2(CCCN(c3ccnc(-c4cnc5cnc(C(F)F)cn45)n3)CC2)O1 (stereo not drawn) [IV-87, 8-(2-(6-(Difluoromethyl)imidazo[1,2-a]pyrazin-3-yl)pyrimidin-4-yl)-1-oxa-3,8-diazaspiro[4.6]undecan-2-one]
> 5000	100 to 1000	OCCc1cc(C2CCCN(c3ccnc(-c4cnc5cnc(C(F)F)cn45)n3)C2)n[nH]1 (stereo not drawn) [IV-92, 2-(3-(1-(2-(6-(Difluoromethyl)imidazo[1,2-a]pyrazin-3-yl)pyrimidin-4-yl)piperidin-3-yl)-1H-pyrazol-5-yl)ethan-1-ol]
